# “Also recorded” adds a separate entry of the source.
# Columns and labels:
# [1] = system: recurring coughs, sneezing, headache, runny nose, pain, cold, fever, sore throat, sinus pressure; assay: Clinical study: one subject rates relief from new pharmaceutical combinations against previous medication; format: in vivo, human; conditions: 2.5 mg cetirizine, 5 mg bilastine, 2.5 mg loratadine or 30 mg fexofenadine, each dose after 3 hours; versus 10, 20, 10 or 120 mg once
# Protocol: The subject had recurring coughs, sneezing, headache, runny nose, pain, cold, fever, sore throat, sinus pressure etc. They took medication including DM+GFN combination as well as antihistamines to cure it, namely: • a. Mucinex Expectorant Tablets (600 mg GFN/dose): 1 dose per 12 hours; • b. […] Labixten (20 mg Bilastine/dose): 1 dose per 24 hours. […] On each recurrence of cough and other symptoms a new pharmaceutical combination was given. The subject would then provide feedback on the improvement of their symptoms and rate the performance of the pharmaceutical composition in comparison to their previous medication experience.
# [2] = in vivo; cited from earlier work
# [3] = 6.25 mg PE administered with 500 mg APAP; cited from earlier work
# [4] = system: therapeutic relief of cough, cold and allergy symptoms; assay: Inventor's findings on relief from GFN or antihistamines combined with IBF+APAP (and PE); no method given; format: in vivo, human; conditions: for therapeutic relief expressed as GFN amount: 'it is suggested'
# Protocol: A normal 4 hourly dosage of DM and GFN is 20 mg and 400 mg respectively.
compound,measurement,setting,value
O=C(O)COCCN1CCN(C(c2ccccc2)c2ccc(Cl)cc2)CC1 (stereo not shown) [cetirizine],quarter dose administered 4 times daily versus normal full 24-hour dose of the same ingredient at once,[1],better effect; also recorded: performed therapeutically better
CC(C)(C(=O)O)c1ccc(C(O)CCCN2CCC(C(O)(c3ccccc3)c3ccccc3)CC2)cc1 (stereo not shown) [fexofenadine],quarter dose administered 4 times daily versus normal full 24-hour dose of the same ingredient at once,[1],better effect; also recorded: performed therapeutically better
CCOCCn1c(C2CCN(CCc3ccc(C(C)(C)C(=O)O)cc3)CC2)nc2ccccc21 [bilastine],quarter dose administered 4 times daily versus normal full 24-hour dose of the same ingredient at once,[1],better effect; also recorded: performed therapeutically better
CCOC(=O)N1CCC(=C2c3ccc(Cl)cc3CCc3cccnc32)CC1 [loratadine],quarter dose administered 4 times daily versus normal full 24-hour dose of the same ingredient at once,[1],better effect; also recorded: performed therapeutically better
"CNC[C@H](O)c1cccc(O)c1 [PE, Phenylephrine]",effectiveness compared with PSE,[2],not as effective as PSE
same,PE dosage of similar effect,[3],~10 mg
"COc1ccccc1OCC(O)CO (stereo not shown) [GFN, guaifenesin]",therapeutic relief expressed as GFN amount,[4]; 100 mg GFN taken with 175-200 mg IBF and 275-575 mg APAP,143 mg GFN
same,therapeutic relief expressed as GFN amount,[4]; 200 mg GFN taken with 175-200 mg IBF and 275-575 mg APAP,286 mg GFN
same,increase in effectiveness of GFN when combined with IBF+APAP,[4]; in vivo,about 45%
same,"GFN dose that, combined with IBF+APAP, gives the relief of a normal 4 hourly dosage of 20 mg DM and 400 mg GFN",[4]; without DM,280 mg
